In general, EC50 refers to the concentration at which the effect is half-maximal. A higher EC50 goes with lower potency in that assay.

This assay can be described thus: T3 promoter assay cell test (luciferase reporter). Type of assay: cell-based. The conditions noted are these: Homo sapiens; HepG2 cells, luciferase induction, costimulator retinoic acid, incubation 48 or 72 hours. How it is done:
The activity of the compounds according to the invention can be examined, for example, in vitro by the known T3 promoter assay cell test, described below:
The test is carried out using a stabily transfected human HepG2 hepatocarcinoma cell which expresses a luciferase gene under the control of a thyroid-hormone-regulated promoter. The vector used for transfection carries, upstream of the luciferase gene, a minimal thymidine kinase promoter with a thyroid-hormone-responsive element (TRE) comprising two inverted palindromes of in each case 12 bp and one 8 bp spacer.
For the test, the cell cultures are sown in 96-well plates in Eagle's Minimal Essential Medium, with the following additives: glutamine, tricine, [N-(tris-hydroxymethyl)-methyl)glycine], sodium pyruvate, non-essential amino acids (L-Ala, L-Asn, L-Asp, L-Pro, L-Ser, L-Glu, Gly), insulin, selenium and transferrin. The cultures are grown at 37° C. in a 10% CO2 atmosphere for 48 hours. Serial dilutions of test substance or reference compound (T3, T4) and the costimulator retinoic acid are then added to the test cultures, which are then incubated as above for a further 48 or 72 hours. […] To determine the luciferase, induced by T3 or other substances, the cells are then lyzed by addition of a triton- and luciferin-containing buffer (from Promega) and immediately measured luminometrically. For each compound, the EC50 is calculated. […]
For orientation: A reporter such as luciferase makes a cellular process visible.

Regarding `Cc1cc(OCC(=O)O)cc(C)c1Cc1ccc(O)c(S(=O)(=O)c2ccc(F)cc2)c1` [Example 2, (4-{3-[(4-Fluorophenyl)sulphonyl]-4-hydroxybenzyl}-3,5-dimethylphenoxy)acetic acid], a half-maximal response (EC50) required 2 nM.
